{
  "source": "paper PMC7465469",
  "about": "“Inhibition of the Lysophosphatidylinositol Transporter ABCC1 Reduces Prostate Cancer Cell Growth and Sensitizes to Chemotherapy” (Cancers, 2020)",
  "molecular_target": "T1, ABCC1 (Homo sapiens, UniProt P33527)",
  "T1 construct": "wild-type ABCC1 (pcDNA3-ABCC1) transiently expressed in HEK293T cells",
  "T1 sequence (P33527 whole entry)": "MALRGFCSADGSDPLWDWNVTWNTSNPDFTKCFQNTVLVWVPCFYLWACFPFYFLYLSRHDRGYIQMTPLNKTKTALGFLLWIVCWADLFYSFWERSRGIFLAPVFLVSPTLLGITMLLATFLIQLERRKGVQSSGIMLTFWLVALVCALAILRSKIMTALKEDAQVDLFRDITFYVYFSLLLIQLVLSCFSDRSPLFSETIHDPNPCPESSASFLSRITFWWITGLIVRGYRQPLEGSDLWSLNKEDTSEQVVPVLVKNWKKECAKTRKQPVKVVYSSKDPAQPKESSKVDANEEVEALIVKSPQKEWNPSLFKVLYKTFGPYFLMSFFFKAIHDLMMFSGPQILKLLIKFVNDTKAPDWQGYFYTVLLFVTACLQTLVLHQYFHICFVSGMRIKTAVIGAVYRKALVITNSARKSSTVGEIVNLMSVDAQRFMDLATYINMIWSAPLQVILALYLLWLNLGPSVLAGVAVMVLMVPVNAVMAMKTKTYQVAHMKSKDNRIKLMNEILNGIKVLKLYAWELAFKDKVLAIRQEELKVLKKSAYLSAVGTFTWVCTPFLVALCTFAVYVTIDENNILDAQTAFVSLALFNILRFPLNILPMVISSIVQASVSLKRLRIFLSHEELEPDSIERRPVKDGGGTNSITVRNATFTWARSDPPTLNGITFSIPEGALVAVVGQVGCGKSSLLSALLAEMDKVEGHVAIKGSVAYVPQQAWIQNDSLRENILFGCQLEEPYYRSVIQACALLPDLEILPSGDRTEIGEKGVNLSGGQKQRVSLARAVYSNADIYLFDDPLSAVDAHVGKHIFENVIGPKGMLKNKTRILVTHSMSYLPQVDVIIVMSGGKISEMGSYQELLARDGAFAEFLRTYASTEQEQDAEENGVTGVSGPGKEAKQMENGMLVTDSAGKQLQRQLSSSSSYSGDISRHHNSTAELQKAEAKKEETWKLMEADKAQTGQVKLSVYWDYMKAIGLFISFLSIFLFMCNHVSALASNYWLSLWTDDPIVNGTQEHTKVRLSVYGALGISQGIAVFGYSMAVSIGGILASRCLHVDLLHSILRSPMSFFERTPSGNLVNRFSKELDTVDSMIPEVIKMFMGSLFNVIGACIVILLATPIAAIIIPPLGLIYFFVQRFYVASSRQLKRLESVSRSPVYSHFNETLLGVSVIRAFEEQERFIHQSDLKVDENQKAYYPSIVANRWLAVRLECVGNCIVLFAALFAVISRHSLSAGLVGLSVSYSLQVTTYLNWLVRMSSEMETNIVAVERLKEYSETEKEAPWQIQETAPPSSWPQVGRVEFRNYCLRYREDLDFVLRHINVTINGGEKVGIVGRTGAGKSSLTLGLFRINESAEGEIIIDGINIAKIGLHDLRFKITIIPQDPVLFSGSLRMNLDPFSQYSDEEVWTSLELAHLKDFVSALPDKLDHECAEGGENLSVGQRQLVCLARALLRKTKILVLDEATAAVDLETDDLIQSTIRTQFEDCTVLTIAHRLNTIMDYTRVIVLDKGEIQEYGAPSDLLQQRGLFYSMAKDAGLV",
  "assay": "Calcein-AM efflux, two-colour flow cytometry in ABCC1-transfected HEK293T cells",
  "assay_type": "cell-based",
  "note": "pIC50: −log10 of the molar value.",
  "data": [
    {"smiles": "CC1=C(CC(=O)O)c2cc(F)ccc2/C1=C\\c1ccc([S+](C)[O-])cc1", "note": "(stereo not shown) [Sulindac]", "values": [
      {"measurement": "pIC50", "value": 3.97}
    ]}
  ]
}
